Measured values taken from patent publication US7115648B2, “Indole-amide derivatives and their use as glycogen phosphorylase inhibitors” (AstraZeneca AB, priority 2002, dated 2006).

Key:
[1] = system: hepatocytes; conditions: cited from earlier work
[2] = system: db/db and ob/ob mice; conditions: dose related; cited from earlier work
[3] = molecular target: T1, Human recombinant liver glycogen phosphorylase a (hrl GPa) (Homo sapiens, UniProt P06737); assay: Glycogen degradation multienzyme coupled assay (NADH fluorescence); format: biochemical; conditions: glycogen degradation direction
T1 sequence (P06737 1-847): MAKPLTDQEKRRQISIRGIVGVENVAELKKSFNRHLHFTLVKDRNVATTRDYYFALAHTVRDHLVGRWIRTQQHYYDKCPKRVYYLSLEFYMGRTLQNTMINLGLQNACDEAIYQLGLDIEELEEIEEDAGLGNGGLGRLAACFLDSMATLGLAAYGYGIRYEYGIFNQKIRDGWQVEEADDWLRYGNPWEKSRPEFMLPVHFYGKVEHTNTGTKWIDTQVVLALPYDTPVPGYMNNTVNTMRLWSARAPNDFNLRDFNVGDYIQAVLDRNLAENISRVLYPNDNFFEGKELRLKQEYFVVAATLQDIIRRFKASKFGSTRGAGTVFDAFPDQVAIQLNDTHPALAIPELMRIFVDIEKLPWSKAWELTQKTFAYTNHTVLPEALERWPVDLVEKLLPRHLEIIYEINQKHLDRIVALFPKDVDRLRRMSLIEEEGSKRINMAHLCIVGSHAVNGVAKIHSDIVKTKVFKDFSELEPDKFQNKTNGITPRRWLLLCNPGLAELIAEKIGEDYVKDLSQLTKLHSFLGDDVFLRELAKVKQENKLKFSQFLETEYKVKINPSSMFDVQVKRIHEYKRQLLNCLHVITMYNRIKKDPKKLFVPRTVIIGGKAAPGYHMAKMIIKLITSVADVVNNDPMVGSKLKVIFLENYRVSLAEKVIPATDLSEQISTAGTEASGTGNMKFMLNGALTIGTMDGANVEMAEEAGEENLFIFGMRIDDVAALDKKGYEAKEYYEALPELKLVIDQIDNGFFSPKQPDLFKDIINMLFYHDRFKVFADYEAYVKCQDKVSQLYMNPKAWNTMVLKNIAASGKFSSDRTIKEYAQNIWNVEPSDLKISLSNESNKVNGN
Experimental: The activity of the compounds is alternatively determined by measuring the inhibitory effect of the compounds on glycogen degradation, the production of glucose-1-phosphate from glycogen is monitored by the multienzyme coupled assay, as described in EP 0 846 464 A2, general method of Pesce et al (Pesce, M A, Bodourian, S H, Harris, R C, and Nicholson, J F (1977) Clinical Chemistry 23, […]). The reactions were in 384 well microplate format in a volume of 50 μl. The change in fluorescence due to the conversion of the co-factor NAD to NADH is measured at 340 nm excitation, 465 nm emission in a Tecan Ultra Multifunctional Microplate Reader. The reaction is in 50 mM HEPES, 3.5 mM KH2PO4, 2.5 mM MgCl2, 2.5 mM ethylene glycol-bis(b-aminoethyl ether) N,N,N′,N′-tetraacetic acid, 100 mM KCl, 8 mM D-(+)-glucose pH7.2, containing 0.5 mM dithiothreitol, the assay buffer solution. Human recombinant liver glycogen phosphorylase a (hrl GPa) 20 nM is pre-incubated in assay buffer solution with 6.25 mM NAD, 1.25 mg type III glycogen at 1.25 mg ml^−1 the reagent buffer, for 30 minutes. […] The non-inhibited activity of GPa is measured in the presence of 10 μl 5% DMSO in assay buffer solution and maximum inhibition measured in the presence of 5 mgs ml^−1 N-ethylmaleimide. […] Relative Fluoresence Units (RFUs) are measured at 340 nm excitation, 465 nm emission. […]

[4] = system: conscious dogs; conditions: cited from earlier work

| IC50 [3] [nM] | SMILES | glucagon stimulated glycogenolysis [1] | glucose output in hepatocytes [1] | plasma glucose concentration [2] | arterial plasma glucose following a glucagon challenge [4] | hepatic glucose output following a glucagon challenge [4] |
| --- | --- | --- | --- | --- | --- | --- |
| – | O=C(N[C@@H](Cc1ccc(F)cc1)C(=O)N1CCC(O)CC1)c1cc2cc(Cl)ccc2[nH]1 [CP320626] | reduce | reduce | reduced, in a dose related manner | – | – |
| – | CN(C)C(=O)[C@H](O)[C@H](Cc1ccccc1)NC(=O)c1cc2cc(Cl)ccc2[nH]1 [CP91149] | reduce | reduce | reduced, in a dose related manner | – | – |
| 550 | O=C(NCC(=O)N(CCO)c1ccccc1)c1cc2cc(Cl)ccc2[nH]1 [Example 1, 5-Chloro-N-{2-[(2-hydroxyethyl)phenylamino]-2-oxoethyl}-1H-indole-2-carboxamide] | – | – | – | – | – |
| – | CCN1C(C)=C(C(=O)OC(C)C)C(c2ccccc2Cl)C2=C1COC2=O (stereo not drawn) [Bay R 3401] | – | – | – | reduced significantly | reduced significantly |
